Measured values as given in article PMC11067034 (Proceedings of the National Academy of Sciences of the …, 2024).

Target: T1, human CTF18-RFC (ATPγS sites in CTF18/A, RFC2/B, RFC5/C, RFC4/D) (Homo sapiens, UniProt P35249+P35250+P40937+Q8WVB6)
T1 construct: gene CHTF18; heptameric CTF18-RFC2-5-DCC1-CTF8 from baculovirus/insect cells, intact complex; DCC1 and CTF8 invisible in maps; mixed with human PCNA (from E. coli BL21) and two-tailed DNA; with Replication factor C subunit 3; Sister chromatid cohesion protein DCC1; Chromosome transmission fidelity protein 8 homolog; Proliferating cell nuclear antigen
Experiment: cryo-EM structure
Type: binding
Details: Mg2+-coordinated; ATPase sites of CTF18, RFC2, RFC5 and RFC4 (arginine fingers from adjacent subunits); 0.5 mM ATPγS, PCNA and DNA, 1 mM Mg acetate, pH 7.5, room temperature

Question: `Nc1ncnc2c1ncn2[C@@H]1O[C@H](COP(=O)(O)OP(=O)(O)OP(O)(O)=S)[C@@H](O)[C@H]1O` [ATPγS] was tested. Which cryo-EM structure did it give?
Answer: We identified four ATPγS molecules in the AAA+ nucleotide binding pockets of subunits CTF18/A, RFC2/B, RFC5/C
